Assays:
[1] = tested on: TGF-β-induced fibronectin expression; assay: Western blot of TGF-β-induced fibronectin in J2 mouse fibroblast cells; format: cell-based; conditions: J2 (3T3-J2) mouse fibroblasts, digoxin 30-240 nM, 5 ng/ml TGF-β, 24 hours
Method: A) WPMY-1 human fibroblast cells transfected with SMAD (left) or EGR1 (right) luciferase reporter were treated with or without 5 ng/ml TGF-β in the presence or absence of Digoxin (60 or 120 nM) for 24 hours. Relative luciferase activity is shown. *P<0.05, **P<0.01, ***P<0.001 are significant differences compared to values set to 1 (n=3, Values are ±SEM). B) J2 mouse fibroblast cells were treated with or without 5 ng/ml TGF-β in the presence or absence of increasing concentrations (30, 60, 120, or 240 nM) of digoxin for 24 hours. Representative blot is shown with two exposures of fibronectin to account for strong signal intensity (n=3).
Finally, J2 mouse fibroblast cells were treated with or without 5 ng/ml TGF-β in the presence or absence of increasing concentrations (30, 60, 120, or 240 nM) of digoxin for 24 hours.
The inventors used 3T3-J2 murine fibroblasts, which are highly resistant to cardiac glycosides compared to theft human counterpart.

WPMY-1 cells = assay: Viability / metabolic activity assay on WPMY-1 cells
Method: Metabolically viable cells (indicated by bar; left y-axis) are indicated by fluorescent intensity (560/590 nm).
Cardiac glycosides have been shown previously to inhibit cell growth in a variety of cell types, in order to determine whether cardiac glycosides inhibited TGE-β-induced fibronectin expression by affecting metabolic activity, viability assays were performed on WPMY-1 cells over 48 hours in 1% FBS DMEM.

[2] = tested on: TGF-β-induced CAF differentiation markers; assay: Real-Time PCR of CAF markers in MRC-5 fibroblasts; format: cell-based, human; conditions: MRC-5, 120 nM digoxin, 5 ng/ml TGF-β, 24 h
Method: In order to determine if digoxin prevents CAF differentiation or simply TGF-β-induced fibronectin expression, the inventors performed quantitative reverse transcriptase-PCR (qPCR) to analyze other CAF markers, including α-SMA, collagen 1a1 (COL1A1), fibroblast activation protein (FAP), and tenascin C (TNC). RNA was extracted from cells treated with 120 nM digoxin±TGF-β for 24 hours. […] Additionally, the inventors observed that α-SMA mRNA expression was already high in WPMY-1 cells and not increased by addition of TGF-β, but was reduced in response to digoxin treatment.

[3] = tested on: activated fibroblast phenotype (fibronectin, YAP, TAZ, smooth muscle actin); assay: Western blot of activated fibroblast markers (FN, YAP, TAZ, SMA) in MRC-5 lung fibroblasts induced by growth factors; format: cell-based, human
Method: FIG. 10C: MRC-5 lung fibroblast cells were serum-starved 24 hours then treated with 10 ng/mL TGF-β in serum-free media for 24 hours with or without verteporfin at the indicated concentration. FN: fibronectin, YAP: yes-activated protein, TAZ: transcriptional coactivator with PDZ-binding motif, and SMA(ACTA2): smooth muscle actin. Representative western blot is shown (n=3).
FIG. […] T.F.8: combination TGF, FGF, IL8. […] FN: fibronectin, YAP: yes-activated protein, TAZ: transcriptional coactivator with PDZ-binding motif, and SMA(ACTA2): smooth muscle actin. Representative western blot is shown (n=2).

[4] = tested on: transcriptional upregulation of activated fibroblasts markers by TGF-β or IL-8; conditions: MRC-5, 10 ng/mL TGF-β or 20 ng/ml IL-8, 24 hours; digoxin 150 nM, pyrvinium 300 nM
Method: Expression of the indicated genes was analyzed by real-time qPCR. TGFβ treated samples were set at 1 and other conditions were normalized accordingly. FN1: fibronectin, YAPv4: yes-activated protein, TNC: tenascin C, Col1A1: collagen 1a1, WWTR1v2: WW domain-containing transcription regulator protein 1 (TAZ), and SNAI1: Snail1. Representative data from at least two independent experiments are provided.

WPMY-1 fibroblasts = assay: Collagen/Matrigel contraction of WPMY-1 fibroblasts; conditions: WPMY-1 in collagen/Matrigel, 120 nM digoxin, 5 ng/ml TGF-β, 4 days
Method: WPMY-1 (A) and MRC-5 (B) fibroblasts were treated with or without 120 nM digoxin±5 ng/ml TGF-β. […] WPMY-1 (C) and MRC-5 (D) fibroblasts embedded in collagen/Matrigel were treated with or without 120 nM digoxin±5 ng/ml TGF-β for 4 days post seeding. Data are shown as percent contracted area from initial 100% well confluence. *P<0.05 and **P<0.01 indicate significant differences (n=3, Values are ±SEM).

## C[C@H]1O[C@@H](O[C@H]2[C@@H](O)C[C@H](O[C@H]3[C@@H](O)C[C@H](O[C@H]4CC[C@@]5(C)[C@H](CC[C@@H]6[C@@H]5C[C@@H](O)[C@]5(C)[C@@H](C7=CC(=O)OC7)CC[C@]65O)C4)O[C@@H]3C)O[C@@H]2C)C[C@H](O)[C@@H]1O [digoxin]
[1]
  TGF-β-induced fibronectin expression in mouse fibroblasts: did not have an effect on TGF-β-induced fibronectin expression
[1]; listed as Digoxin
  TGF-β-induced fibronectin expression in mouse fibroblasts: did not prevent fibronectin induction even at high concentrations
WPMY-1 cells
  cell viability / metabolic activity: no effect on cell viability
[2]
  TGF-β-induced expression of FN1, α-SMA, COL1A1, TNC mRNA: prevented TGF-β-induced expression
[3]; MRC-5, 10 ng/mL TGF-β and 20 ng/ml FGF, 24 hours
  activated fibroblast phenotype induced by TGF-β and FGF (fibronectin, YAP, TAZ, smooth muscle actin): able to prevent the activated fibroblast phenotype
[3]; MRC-5, 10 ng/mL TGF-β and 20 ng/ml FGF, 24 hours, nintedanib 200 nM
  activated fibroblast phenotype upon TGF-β and FGF, compared with nintedanib: able to block the activated fibroblast phenotype better than nintedanib
[3]; MRC-5, 10 ng/mL TGF-β, 20 ng/mL FGF, 20 ng/mL IL-8, digoxin 250 nM, pyrvinium 500 nM vs pirfenidone 500 μm, nintedanib 250 nM
  fibroblast activation from a combination of growth factors (TGF, FGF, IL8): able to block fibroblast activation from a combination of growth factors better than pirfenidone or nintedanib
[3]; MRC-5, 10 ng/mL TGF-β, serum-free, 24 hours, dose escalation
  induction of fibronectin, YAP, TAZ, smooth muscle actin by TGF-β: block the induction of activated fibroblasts
[4]
  transcriptional induction of collagen 1a1, tenascin C, fibronectin, YAP, Snail (TGF-β) and TAZ (IL-8): prevented the transcriptional induction of collagen 1a1, tenascin C, fibronectin, YAP and Snail downstream of TGF-β signaling and TAZ downstream of the fibroblast chemokine IL-8
WPMY-1 fibroblasts
  TGF-β induced contraction of fibroblasts: inhibits TGF-β induced contraction of fibroblasts

Reference: US11096952B2, “Chemicals and methods to prevent and treat TGF-beta mediated activation of fibroblasts to reduce and treat cancer and fibrosis” (Board of Supervisors of Louisiana State University and …, priority 2016, dated 2021)
